Laboratory results reported in patent US20240384268A1, “Oligonucleotides” (Hudson Institute of Medical Research, priority 2021, published 2024).

Target: T1, human TLR7 (Homo sapiens, UniProt Q9NYK1)
T1 construct: HA; host or cells: 293XL-hTLR7-HA (HEK293)
T1 sequence (Q9NYK1 27-1049): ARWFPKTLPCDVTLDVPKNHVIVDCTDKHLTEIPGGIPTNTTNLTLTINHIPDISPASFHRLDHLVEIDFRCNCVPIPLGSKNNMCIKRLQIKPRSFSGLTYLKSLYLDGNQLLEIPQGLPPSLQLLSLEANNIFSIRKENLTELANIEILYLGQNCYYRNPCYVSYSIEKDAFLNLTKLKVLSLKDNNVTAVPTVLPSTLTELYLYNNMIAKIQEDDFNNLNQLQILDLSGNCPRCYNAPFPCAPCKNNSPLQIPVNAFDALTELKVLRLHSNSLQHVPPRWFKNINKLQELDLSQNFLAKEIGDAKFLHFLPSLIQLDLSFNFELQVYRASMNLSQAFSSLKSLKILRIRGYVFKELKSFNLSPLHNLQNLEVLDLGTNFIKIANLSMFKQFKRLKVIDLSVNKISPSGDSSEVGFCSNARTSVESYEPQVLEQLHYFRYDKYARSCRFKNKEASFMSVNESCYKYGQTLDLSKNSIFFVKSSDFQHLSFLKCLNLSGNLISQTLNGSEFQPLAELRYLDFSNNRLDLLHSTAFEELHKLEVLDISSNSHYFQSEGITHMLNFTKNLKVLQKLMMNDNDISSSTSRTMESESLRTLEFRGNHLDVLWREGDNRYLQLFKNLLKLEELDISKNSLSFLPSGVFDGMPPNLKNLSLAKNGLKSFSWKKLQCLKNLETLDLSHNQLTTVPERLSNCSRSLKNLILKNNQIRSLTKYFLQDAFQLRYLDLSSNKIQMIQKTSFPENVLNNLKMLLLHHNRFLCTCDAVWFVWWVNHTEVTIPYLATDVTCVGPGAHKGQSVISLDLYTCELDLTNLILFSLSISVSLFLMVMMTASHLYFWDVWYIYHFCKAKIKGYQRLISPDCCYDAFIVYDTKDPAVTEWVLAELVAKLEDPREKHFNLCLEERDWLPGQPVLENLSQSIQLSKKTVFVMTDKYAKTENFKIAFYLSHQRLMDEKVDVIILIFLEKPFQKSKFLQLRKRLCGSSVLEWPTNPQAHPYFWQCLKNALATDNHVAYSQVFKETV
Test: HEK-TLR7 NF-κB-luciferase reporter, R848 stimulation
Assay type: cell-based
Settings: for TLR7 100 nM (averaged NF-κB-Luciferase level relative to R848 condition): ASO 100 nM; for TLR7 100 nM (averaged NF-κB-Luciferase level relative to R848 condition) / TLR7 500 nM (averaged NF-κB-Luciferase level relative to R848 condition): relative to R848 only, given as fraction; for TLR7 500 nM (averaged NF-κB-Luciferase level relative to R848 condition): ASO 500 nM

Sequence	TLR7 100 nM (averaged NF-κB-Luciferase level relative to R848 condition)	TLR7 500 nM (averaged NF-κB-Luciferase level relative to R848 condition)	TLR7 100 nM (MOE-modified ASO at 100 nM, averaged NF-κB-Luciferase relative to R848 condition)	TLR7 500 nM (MOE-modified ASO at 500 nM, averaged NF-κB-Luciferase relative to R848 condition)
AAAGGACTGAGGAAAG (antisense; LNA-modified, pattern not given here) [CAMSAP1-6273 LNA KL]	0.513	0.267		
AACACTTCGTGGGGTC (antisense; LNA-modified, pattern not given here) [HPRT LNA-666 V1]	0.899	0.445		
AACCCCTTTCACCATC (antisense; LNA-modified, pattern not given here) [MB21D1-689 LNA KL]	0.771	0.426		
AATCCAACAAAGTCTG (antisense; LNA-modified, pattern not given here) [HPRT LNA-692 KL]	0.727	0.433		
ACACTTCGTGGGGTCCTTTT (antisense; 2'-MOE modified, pattern not given here) [HPRT-663 MOE]			0.403	0.235
ACCACGTCTGCTCTAA (antisense; LNA-modified, pattern not given here) [CAMSAP1-1635 LNA KL]	1.078	0.532		
ACGTTCAGTCCTGTCC (antisense; LNA-modified, pattern not given here) [HPRT LNA-294 V1]	0.601	0.136		
ACTTCGTGGGGTCCTT (antisense; LNA-modified, pattern not given here) [HPRT LNA-663 V1]	0.804	0.736		
AGATTTCAGAGCAGCT (antisense; LNA-modified, pattern not given here) [EGFR-4885 LNA KL]	0.438	0.021		
AGCTTCGAGGCCCCAG (antisense; LNA-modified, pattern not given here) [MB21D1-616 LNA V1]	0.554	0.111		
AGGACTCCAGATGTTT (antisense; LNA-modified, pattern not given here) [HPRT LNA pos cont]	0.437	0.293		
AGGCCCTTCGCACTTC (antisense; LNA-modified, pattern not given here) [EGFR-1225 LNA V1]	0.737	0.164		
AGGTCTTGGCTTCGTG (antisense; LNA-modified, pattern not given here) [MB21D1-524 LNA V1]	0.457	0.050		
AGTGTTGAGATACTCG (antisense; LNA-modified, pattern not given here) [EGFR-3652 LNA KL]	0.559	0.115		
ATCTGGCAGCCCATCA (antisense; LNA-modified, pattern not given here) [CTNN2B-2516 LNA V1]	0.663	0.279		
ATGGCCTCCCATCTCC (antisense; LNA-modified, pattern not given here) [HPRT LNA-330 V1]	0.550	0.117		

Sequence	TLR7 100 nM (averaged NF-κB-Luciferase level relative to R848 condition)	TLR7 500 nM (averaged NF-κB-Luciferase level relative to R848 condition)	TLR7 100 nM (MOE-modified ASO at 100 nM, averaged NF-κB-Luciferase relative to R848 condition)	TLR7 500 nM (MOE-modified ASO at 500 nM, averaged NF-κB-Luciferase relative to R848 condition)
ATGTGATGGCCTCCCA (antisense; LNA-modified, pattern not given here) [HPRT LNA-335 V1]	0.499	0.128		
CACTTCGTGGGGTCCT (antisense; LNA-modified, pattern not given here) [HPRT LNA-664 V1]	0.868	0.240		
CATCCACCACGTCGTC (antisense; LNA-modified, pattern not given here) [EGFR-3266 LNA V1]	0.741	0.353		
CCAACACTTCGTGGGG (antisense; LNA-modified, pattern not given here) [HPRT LNA-668 V1]	0.808	0.446		
CCACATCCTGTGGCTC (antisense; LNA-modified, pattern not given here) [CAMSAP1-2906 LNA V1]	0.789	0.363		
CCACTTGGCAGACCAT (antisense; LNA-modified, pattern not given here) [CTNN2B-1575 LNA V1]	0.765	0.470		
CCAGCAGGTCAGCAAA (antisense; LNA-modified, pattern not given here) [HPRT LNA-388 KL]	1.101	0.942		
CCCACTTGGCAGACCA (antisense; LNA-modified, pattern not given here) [CTNN2B-1576 LNA V1]	1.024	0.639		
CCTCCCATCTCCTTCA (antisense; LNA-modified, pattern not given here) [HPRT LNA-326 V1]	0.758	0.843		
CCTTGCACGTGGCTTC (antisense; LNA-modified, pattern not given here) [EGFR-1013 LNA V1]	0.617	0.281		
CGCTTTTCTGTCTGGT (antisense; LNA-modified, pattern not given here) [CTNN2B-311 LNA KL]	0.393	0.142		
CGGCCTCGGAAGCTCT (antisense; LNA-modified, pattern not given here) [MB21D1-168 LNA V1]	0.594	0.139		
CGTATTATAGCCGATT (antisense; LNA-modified, pattern not given here) [NC1 LNA PS 3-10-3]	0.754	0.226		
CTGCAGCTTCCTTGTC (antisense; LNA-modified, pattern not given here) [CTNN2B-2136 LNA V1]	0.467	0.053		
CTTCGTGGGGTCCTTT (antisense; LNA-modified, pattern not given here) [HPRT LNA-662 V1]	0.685	0.233		
